Paper PMC11851776, “Structural Basis for the Catalysis and Substrate Specificity of a LarA Racemase with a Broad Substrate Spectrum” (ACS Catalysis, 2025)

Assays:
LarAIp [1] = target: T1, LarAIp (Isosphaera pallida, UniProt E8QWZ4); test: X-ray crystal structure, […] Å; type: binding; settings: ligand exchange with ~3 mM D/L-2HB at 55 °C 15 min, then 4 °C; active site
T1 construct: gene Isop_3476; full length, C-terminal Strep-II tag, co-expressed with LarB, LarC and LarE in Lactococcus lactis NZ3900 (structures); apoprotein from E. coli (pBADHisA) plus in vitro-synthesized NPN for substrate assays; 47403 Da after loss of Met1; monomer
T1 sequence (E8QWZ4 entry or part of it): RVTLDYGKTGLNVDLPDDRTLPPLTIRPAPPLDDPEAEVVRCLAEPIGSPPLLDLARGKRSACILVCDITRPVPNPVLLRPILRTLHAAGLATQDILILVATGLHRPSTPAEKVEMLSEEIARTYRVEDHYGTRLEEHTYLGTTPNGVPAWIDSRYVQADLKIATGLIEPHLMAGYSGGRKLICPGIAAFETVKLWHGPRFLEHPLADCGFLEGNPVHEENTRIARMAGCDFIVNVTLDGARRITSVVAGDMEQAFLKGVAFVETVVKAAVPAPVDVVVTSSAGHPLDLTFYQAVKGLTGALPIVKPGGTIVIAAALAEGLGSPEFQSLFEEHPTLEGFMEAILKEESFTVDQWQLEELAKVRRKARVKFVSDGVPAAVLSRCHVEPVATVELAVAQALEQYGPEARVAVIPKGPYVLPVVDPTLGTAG

LarAIp [2] = target: T1, LarAIp; test: X-ray crystal structure, […] Å; type: binding; settings: naturally bound in enzyme as purified; active site with NPN tethered to Lys183
LarAIp [3] = target: T1, LarAIp; test: X-ray crystal structure, […] Å; type: binding; settings: ligand exchange at ~3 mM, 55 °C 15 min, then 4 °C; active site
LarAIp [4] = target: T1, LarAIp; test: competitive-substrate racemization assay, capillary electrophoresis; type: biochemical; settings: turnover only (relative kcat/KM); 100 mM Tris-HCl pH 8.0, 30 °C, 1 μM NPN
LarAIp [5] = target: T1, LarAIp; test: racemization assay, D-lactate formed measured by D/L-lactate kit; type: biochemical; settings: turnover only; conversion to D-lactate also seen in crystal

For `CC[C@@H](O)C(=O)O` [D-2HB], the “X-ray crystal structure, 1.38 Å” value (LarAIp [1]) was 9EID (LarAIp with bound D-2HB).
In the case of `C[C@@H](O)C(=O)O` [D-lactate], the “X-ray crystal structure, 1.74 Å” value (LarAIp [2]) is reported as 9EIA (LarAIp with bound D-lactate as purified).
With `CC(C)[C@@H](O)C(=O)O` [D-2HIV] the “X-ray crystal structure, 1.65 Å” value (LarAIp [3]) was 9EIF (LarAIp with bound D-2HIV).
`O=C(O)[C@@H](O)CO` [L-glycerate] was tested, and the “competitive-substrate racemization assay, capillary electrophoresis” value (LarAIp [4]) was “highest kcat/KM values for L-lactate and 2-hydroxybutyrate (2HB), followed by L-glycerate”.
For `C[C@H](O)C(=O)O` [L-lactate], the “racemization assay, D-lactate formed measured by D/L-lactate kit” value (LarAIp [5]) was “confirmed the conversion of three L-α-hydroxyacids into the corresponding D-enantiomers”.
